In PMC2248166, “Quantitative peptide binding motifs for 19 human and mouse MHC class I molecules derived using positional scanning combinatorial peptide libraries” (Immunome Research, 2008):
Where a SMILES comes first, the peptide text is derived from it.

Biological target: HLA B*0801 (Homo sapiens, UniProt P01889, A93T/A95T/D138N/E176V/E187T/K202T/Q94N/R180D/S35A/V36M/Y33D/Y91F)
Experiment: biochemical
Type: binding

| SMILES | IC50 [nM] |
| --- | --- |
| CC[C@H](C)[C@H](NC(=O)[C@@H](N)CC(N)=O)C(=O)N[C@@H](CCSC)C(=O)N1CCC[C@H]1C(=O)N[C@@H](CC(C)C)C(=O)N[C@@H](Cc1ccccc1)C(=O)N1CCC[C@H]1C(=O)N[C@H](C(=O)N[C@@H](Cc1ccccc1)C(=O)O)[C@@H](C)O [3102.0648] (H-NIMPLFPTF-OH) | 48 |
| CSCC[C@H](NC(=O)[C@H](Cc1ccccc1)NC(=O)[C@H](CCSC)NC(=O)[C@@H](N)CO)C(=O)N[C@@H](CO)C(=O)N[C@@H](CC(C)C)C(=O)N[C@@H](CC(C)C)C(=O)N1CCC[C@H]1C(=O)N[C@@H](C)C(=O)O [3102.0656] (H-SMFMSLLPA-OH) | 56 |
| CC[C@H](C)[C@H](NC(=O)[C@H](C)N)C(=O)N[C@@H](CCCCN)C(=O)N[C@@H](CC(C)C)C(=O)NCC(=O)N[C@@H](Cc1ccccc1)C(=O)N[C@@H](CCCCN)C(=O)N[C@@H](CO)C(=O)N[C@@H](CC(C)C)C(=O)O [3102.0664] (H-AIKLGFKSL-OH) | 41 |
| CC[C@H](C)[C@H](NC(=O)[C@H](CCCNC(=N)N)NC(=O)[C@H](Cc1ccc(O)cc1)NC(=O)[C@H](CCCCN)NC(=O)[C@H](CC(N)=O)NC(=O)[C@@H](N)CO)C(=O)N[C@@H](CCCCN)C(=O)N[C@@H](CO)C(=O)N[C@H](C(=O)O)C(C)C [3102.0666] (H-SNKYRIKSV-OH) | 2.7 |
| CC(C)C[C@H](NC(=O)[C@@H](N)CC(=O)O)C(=O)N[C@@H](CCCNC(=N)N)C(=O)N[C@@H](CCCNC(=N)N)C(=O)N[C@@H](CCCNC(=N)N)C(=O)N[C@@H](Cc1ccccc1)C(=O)N[C@@H](CC(=O)O)C(=O)N[C@H](C(=O)N[C@@H](Cc1ccccc1)C(=O)O)[C@@H](C)O [3102.0667] (H-DLRRRFDTF-OH) | 1.6 |
| CC[C@H](C)[C@H](NC(=O)[C@@H]1CCCN1C(=O)[C@H](CCCCN)NC(=O)[C@@H](NC(=O)[C@H](CCCNC(=N)N)NC(=O)[C@H](CC(N)=O)NC(=O)[C@H](CCCNC(=N)N)NC(=O)[C@H](CCSC)NC(=O)[C@@H](N)CCSC)[C@@H](C)O)C(=O)O [3102.0668] (H-MMRNRTKPI-OH) | 1.5 |
| CSCC[C@H](NC(=O)[C@H](CC(C)C)NC(=O)[C@H](CCCNC(=N)N)NC(=O)[C@H](CCCCN)NC(=O)[C@H](CCSC)NC(=O)[C@H](CCSC)NC(=O)[C@@H](N)CCSC)C(=O)N[C@@H](Cc1ccccc1)C(=O)N[C@@H](CCC(=O)O)C(=O)O [3102.0672] (H-MMMKRLMFE-OH) | 75 |
| CC(C)C[C@H](NC(=O)[C@@H](N)CC(C)C)C(=O)N[C@@H](CCCCN)C(=O)N[C@@H](Cc1ccccc1)C(=O)N[C@@H](CCCNC(=N)N)C(=O)N[C@H](C(=O)N[C@@H](CCC(=O)O)C(=O)N[C@@H](CO)C(=O)N[C@@H](CS)C(=O)O)C(C)C [3102.0675] (H-LLKFRVESC-OH) | 74 |
| CC[C@H](C)[C@H](NC(=O)[C@H](CCCCN)NC(=O)[C@@H](NC(=O)[C@H](CCCCN)NC(=O)[C@@H](NC(=O)[C@@H](N)CC(=O)O)[C@@H](C)CC)[C@@H](C)O)C(=O)N[C@@H](CCSC)C(=O)N[C@H](C(=O)N[C@@H](CC(C)C)C(=O)O)C(C)C [3102.0683] (H-DIKTKIMVL-OH) | 73 |
| CSCC[C@H](NC(=O)[C@H](CO)NC(=O)[C@H](Cc1c[nH]cn1)NC(=O)[C@H](CCCCN)NC(=O)[C@@H](NC(=O)[C@H](Cc1ccc(O)cc1)NC(=O)[C@H](CCSC)NC(=O)[C@@H](N)Cc1ccccc1)[C@@H](C)O)C(=O)N[C@@H](CC(C)C)C(=O)O [3102.0684] (H-FMYTKHSML-OH) | 0.2 |
| CC[C@H](C)[C@H](NC(=O)[C@H](CCCCN)NC(=O)[C@H](CC(C)C)NC(=O)[C@@H](N)Cc1ccccc1)C(=O)N[C@@H](CCCCN)C(=O)N[C@H](C(=O)N[C@H](C(=O)N[C@@H](C)C(=O)N[C@@H](C)C(=O)O)[C@@H](C)O)C(C)C [3102.0685] (H-FLKIKVTAA-OH) | 15 |
| CC(C)C[C@H](NC(=O)[C@@H](N)Cc1ccc(O)cc1)C(=O)N[C@@H](CCCNC(=N)N)C(=O)N[C@H](C(=O)N[C@@H](CCCCN)C(=O)N1CCC[C@H]1C(=O)N[C@@H](C)C(=O)N[C@@H](CO)C(=O)N[C@@H](C)C(=O)O)[C@@H](C)O [3102.0686] (H-YLRTKPASA-OH) | 1.5 |
| CC[C@H](C)[C@H](NC(=O)[C@@H]1CCCN1C(=O)[C@H](CCCNC(=N)N)NC(=O)[C@H](Cc1c[nH]cn1)NC(=O)[C@H](CCCNC(=N)N)NC(=O)[C@H](CCCCN)NC(=O)[C@H](CC(N)=O)NC(=O)[C@@H](N)CO)C(=O)NCC(=O)O [3102.0687] (H-SNKRHRPIG-OH) | 34 |
| CC[C@H](C)[C@H](NC(=O)[C@H](Cc1c[nH]cn1)NC(=O)[C@H](Cc1ccccc1)NC(=O)[C@H](CCCNC(=N)N)NC(=O)[C@@H](NC(=O)[C@@H](N)CO)[C@@H](C)CC)C(=O)N[C@@H](CCCCN)C(=O)N[C@@H](CCC(=O)O)C(=O)N[C@@H](CC(C)C)C(=O)O [3102.0695] (H-SIRFHIKEL-OH) | 0.45 |
| CC(C)C[C@H](NC(=O)[C@H](CO)NC(=O)CNC(=O)[C@H](Cc1ccccc1)NC(=O)[C@@H](NC(=O)[C@H](CCC(N)=O)NC(=O)[C@H](CCCCN)NC(=O)[C@H](Cc1ccccc1)NC(=O)[C@@H](N)Cc1ccccc1)[C@@H](C)O)C(=O)O [3102.0697] (H-FFKQTFGSL-OH) | 0.74 |
| CSCC[C@H](NC(=O)[C@H](CCC(N)=O)NC(=O)[C@H](CCCCN)NC(=O)[C@@H](NC(=O)[C@H](CCC(N)=O)NC(=O)[C@@H]1CCCN1C(=O)[C@@H](N)CC(N)=O)[C@@H](C)O)C(=O)N[C@@H](C)C(=O)N[C@@H](Cc1ccccc1)C(=O)O [3102.0698] (H-NPQTKQMAF-OH) | 14 |
| CC[C@H](C)[C@H](NC(=O)[C@@H](NC(=O)[C@H](Cc1ccccc1)NC(=O)[C@H](CCCCN)NC(=O)[C@H](CCC(N)=O)NC(=O)[C@H](CCSC)NC(=O)[C@H](CC(=O)O)NC(=O)[C@@H](N)CO)[C@@H](C)O)C(=O)N[C@@H](CC(C)C)C(=O)O [3102.0699] (H-SDMQKFTIL-OH) | 41 |
| CC(C)C[C@H](NC(=O)[C@@H](N)CC(N)=O)C(=O)N[C@@H](CCCNC(=N)N)C(=O)N[C@@H](CS)C(=O)N[C@@H](Cc1c[nH]cn1)C(=O)N[C@@H](CO)C(=O)N[C@@H](C)C(=O)N[C@@H](Cc1c[nH]cn1)C(=O)N[C@H](C(=O)O)C(C)C [3102.0700] (H-NLRCHSAHV-OH) | 1.2 |
| CC[C@H](C)[C@H](NC(=O)[C@H](CC(C)C)NC(=O)[C@H](CCSC)NC(=O)[C@H](CCCNC(=N)N)NC(=O)[C@@H](NC(=O)[C@H](Cc1ccccc1)NC(=O)[C@@H](NC(=O)[C@@H](N)CO)[C@@H](C)CC)[C@@H](C)CC)C(=O)N[C@@H](CC(C)C)C(=O)O [3102.0701] (H-SIFIRMLIL-OH) | 10 |
| CC[C@H](C)[C@H](NC(=O)[C@H](CC(C)C)NC(=O)[C@@H](N)CCSC)C(=O)N[C@@H](CC(C)C)C(=O)N[C@@H](CC(N)=O)C(=O)N[C@@H](Cc1ccccc1)C(=O)N[C@@H](CS)C(=O)N[C@@H](CCCCN)C(=O)N[C@@H](CC(C)C)C(=O)O [3102.0702] (H-MLILNFCKL-OH) | 3.9 |
| CSCC[C@H](NC(=O)[C@@H]1CCCN1C(=O)[C@@H](N)CC(C)C)C(=O)N[C@@H](CC(C)C)C(=O)N[C@@H](Cc1ccc(O)cc1)C(=O)N[C@@H](Cc1ccccc1)C(=O)N[C@@H](CC(C)C)C(=O)N[C@@H](Cc1ccc(O)cc1)C(=O)N[C@H](C(=O)O)C(C)C [3102.0703] (H-LPMLYFLYV-OH) | 2.5 |
| CC[C@H](C)[C@H](NC(=O)[C@@H](NC(=O)[C@H](CCC(N)=O)NC(=O)[C@H](CCCNC(=N)N)NC(=O)[C@H](CCCCN)NC(=O)[C@H](Cc1ccccc1)NC(=O)[C@H](CO)NC(=O)[C@@H]1CCCN1C(=O)[C@@H](N)CC(N)=O)[C@@H](C)CC)C(=O)O [3102.0704] (H-NPSFKRQII-OH) | 20 |
| CC[C@H](C)[C@H](NC(=O)[C@H](CC(=O)O)NC(=O)[C@H](CC(C)C)NC(=O)[C@H](CCCCN)NC(=O)[C@H](CCCCN)NC(=O)[C@H](CCCNC(=N)N)NC(=O)[C@H](CCCCN)NC(=O)[C@@H](NC(=O)[C@@H](N)Cc1ccccc1)C(C)C)C(=O)O [3102.0707] (H-FVKRKKLDI-OH) | 3 |
| CC[C@H](C)[C@H](NC(=O)[C@H](CCCNC(=N)N)NC(=O)[C@@H](N)Cc1ccc(O)cc1)C(=O)N[C@@H](C)C(=O)N[C@@H](CCCCN)C(=O)N[C@@H](Cc1ccccc1)C(=O)N[C@@H](CC(C)C)C(=O)N[C@@H](Cc1ccccc1)C(=O)N[C@@H](CCSC)C(=O)O [3102.0708] (H-YRIAKFLFM-OH) | 17 |
| CC[C@H](C)[C@H](NC(=O)[C@H](CCCCN)NC(=O)[C@@H](NC(=O)[C@H](CCCNC(=N)N)NC(=O)[C@H](CC(C)C)NC(=O)[C@@H](N)C(C)C)[C@@H](C)O)C(=O)N[C@H](C(=O)N[C@@H](CO)C(=O)N[C@@H](CC(C)C)C(=O)O)[C@@H](C)O [3102.0709] (H-VLRTKITSL-OH) | 0.92 |
| CC(C)C[C@H](NC(=O)[C@@H](NC(=O)[C@H](CCCNC(=N)N)NC(=O)[C@H](Cc1ccccc1)NC(=O)[C@H](CCCCN)NC(=O)[C@H](CO)NC(=O)[C@H](CC(C)C)NC(=O)[C@H](CCC(N)=O)NC(=O)[C@@H](N)CC(=O)O)[C@@H](C)O)C(=O)O [3102.0710] (H-DQLSKFRTL-OH) | 7.4 |
| CC[C@H](C)[C@H](NC(=O)[C@H](CC(=O)O)NC(=O)[C@H](CC(C)C)NC(=O)[C@@H]1CCCN1C(=O)[C@H](CCCCN)NC(=O)[C@H](CC(C)C)NC(=O)[C@H](CCCNC(=N)N)NC(=O)[C@H](C)NC(=O)[C@@H](N)CC(N)=O)C(=O)O [3102.0711] (H-NARLKPLDI-OH) | 0.81 |
| CC(C)C[C@H](NC(=O)[C@@H](N)CCC(=O)O)C(=O)N[C@@H](CCCCN)C(=O)N[C@@H](CCC(=O)O)C(=O)N[C@@H](CCCCN)C(=O)N[C@@H](CO)C(=O)N[C@H](C(=O)N[C@@H](CCCCN)C(=O)N[C@@H](Cc1ccccc1)C(=O)O)C(C)C [3102.0712] (H-ELKEKSVKF-OH) | 3.2 |
| CC[C@H](C)[C@H](NC(=O)[C@H](CO)NC(=O)[C@H](CCSC)NC(=O)[C@H](CC(C)C)NC(=O)[C@H](CCCNC(=N)N)NC(=O)[C@H](CC(N)=O)NC(=O)[C@H](CO)NC(=O)[C@H](CC(N)=O)NC(=O)[C@@H](N)CO)C(=O)O [3102.0713] (H-SNSNRLMSI-OH) | 10 |
| CSCC[C@H](NC(=O)[C@H](Cc1ccccc1)NC(=O)[C@@H](N)CC(C)C)C(=O)N[C@@H](CO)C(=O)N[C@@H](Cc1c[nH]cn1)C(=O)N[C@H](C(=O)N[C@@H](CCCCN)C(=O)N[C@@H](CO)C(=O)N[C@H](C(=O)O)C(C)C)C(C)C [3102.0716] (H-LFMSHVKSV-OH) | 3.1 |
